Reference: patent publication EP0073390A1, “Combination of active substances from kitasamycine and quinoxaline-di-N oxides” (BAYER AG, priority 1981, dated 1983)

Experiments:
[1] = tested on: Ferkel; test: Feeding trial with piglets, Beispiel 1 (daily weight gain and feed conversion); assay type: in vivo
Text: a) Tier-Charakteristik und Futter
• a1) Ferkel • a2) Anzahl 30 • a3) Zucht große weiße Landrasse Kreuzungszucht • a4) Geschlecht männlich • a5) Alter etwa 8 bis 14 Wochen • a6) Gewicht 17,5 bis 45 kg • a7) Zustand gut • a8) Futter [formula]
Ingredientien: • Weizen, Gerste, Hirse, Kleie, Fleischmehl, Sojabohnenmehl, Baumwollsamenmehl, Sonnenblumensamenmehl, Lysin, Salz, Kalkstein, 2RO, MnO, Kupfer- und Eisensulfat, Kaliumjodid, Vitamine A, D, E, K, B/2, Niazin, Pantothensäure.
Die Behandlung der Tiere wurde in 5 Behandlungsgruppen durchgeführt. Das Anfangsgewicht für jede Gruppe war gleich.
Die Ferkel wurden […] gewogen. Es wurde die tägliche Gewichtszunahme und Futterverwertung bestimmt. Wöchentliches Wiegen und individuelle Futteraufnahme wurden notiert.

[2] = tested on: Ferkel; test: Feeding trial with piglets, Beispiel 2 (weight gain, feed conversion, back fat thickness by ultrasound); assay type: in vivo
Text: a) Tiercharakteristik und Futter
Die Ferkel wurden zu Versuchbeginn und in wöchentlichen oder vierzehntägigen Abständen bis zum Versuchsende gewogen.
Futtermenge und Mortalität wurden täglich notiert.
Die Rückenfettstärke wurde per Ultraschall am Versuchsende gemessen und auf 75 kg Lebendgewicht korrigiert.

Cc1c(C(=O)NCCO)[n+]([O-])c2ccccc2[n+]1[O-] [d1)]
Durchschnittliche tägliche Gewichtszunahme ([1]; Beispiel 1, Ferkel, male, about 8 to 14 weeks, 17,5 bis 45 kg, Konzentration (ppm): d1) 50, d2) 50, d3) 25:25, d4) 12,5:12,5, Kontrolle 537): 593 g/Tag | Durchschnittliches Futterverwertungsverhältnis ([1]; Beispiel 1; Ferkel; groups e1)-e4) correspond to d1)-d4); concentration column printed empty; e5) (presumably control) 2,72): 2,52 g/g | Futterverwertung ([2]; 40 kg bis 75 kg): 3,10 g/g | Gewichtszunahme ([2]; 40 kg bis Ende): 641 g/Tag | Futterverwertung ([2]; Beginn bis 40 kg): 2,30 g/g | Gewichtszunahme ([2]; Beginn bis 40 kg): 499 g/Tag | Futterverwertung ([2]; Beginn bis Ende): 2,74 g/g | Gewichtszunahme ([2]; Beginn bis Ende): 573 g/Tag
